Reference: patent US9221827B2, “Antimicrobial compounds and methods of making and using the same” (Melinta Therapeutics, Inc., priority 2011, dated 2015)

Test system: Escherichia coli strain ATCC25922
Assay: standard microdilution assay to determine minimum inhibitory concentrations (MICs)
Assay type: cell-based
Outline: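 Broth microdilution per CLSI (M7-A8/M100-S20), 100 μl final volume, with reference-strain quality control; MIC is the lowest inhibitory concentration. Scored "+"/"−" against a 16 micrograms/ml cutoff, "N/A" where unavailable.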

[1] = Escherichia coli strain ATCC25922, microdilution
[2] = Escherichia coli strain ATCC25922, standard microdilution assay

| Compound | E. coli ATCC25922 MIC [1] | E. coli ATCC25922 MIC [2] |
| --- | --- | --- |
| CNC(C)CCCc1cc(Cl)c(F)c(-c2cc3cn(-c4ccc(CNCCCNC(=N)N)cc4)c(=O)nc3[nH]2)c1 (stereo not drawn) [Compound 292] | + (a “+” indicates that the compound has an MIC value of 16 micrograms/ml or less) |  |
| Cc1cc(CCC[C@H](C)N)cc(-c2cc3cn(-c4ccc(CNCCCNC(=N)N)cc4)c(=O)nc3[nH]2)c1Cl [Compound 313] | + (a “+” indicates that the compound has an MIC value of 16 micrograms/ml or less) |  |
| C[C@H](N)CCCc1cc(Cl)c(OC(F)(F)F)c(-c2cc3cn(-c4ccc(CNCCCNC(=N)N)cc4)c(=O)nc3[nH]2)c1 [Compound 321] | + (a “+” indicates that the compound has an MIC value of 16 micrograms/ml or less) |  |
| COC[C@H](N)CCCc1cc(Cl)c(F)c(-c2cc3cn(-c4ccc(CNCCCNC(=N)N)cc4)c(=O)nc3[nH]2)c1 [Compound 445] |  | + (a “+” indicates that the compound has an MIC value of 16 micrograms/ml or less) |
| CS(=O)(=O)c1cc(CCCCN)cc(-c2cc3cn(-c4ccc(CNCCCNC(=N)N)cc4)c(=O)nc3[nH]2)c1 [Compound 33] | + (a “+” indicates that the compound has an MIC value of 16 micrograms/ml or less) |  |
| CC(C)(CNCc1ccc(-n2cc3cc(-c4cc(CCCCN)cc(OC(F)(F)F)c4)[nH]c3nc2=O)cc1)CNC(=N)N [Compound 31] | + (a “+” indicates that the compound has an MIC value of 16 micrograms/ml or less) |  |
| CC(N)CCCc1cc(Cl)c(F)c(-c2cc3cn(-c4ccc(C(C)NCCCNC(N)=NC(C)C)cc4)c(=O)nc3[nH]2)c1 (stereo not drawn) [Compound 364] |  | + (a “+” indicates that the compound has an MIC value of 16 micrograms/ml or less) |
| C[C@H](N)CCCc1cc(-c2cc3cn(-c4ccc([C@H](C)NCCCNC(=N)N)cc4)c(=O)nc3[nH]2)cc2c1CCCC2 [Compound 417] |  | + (a “+” indicates that the compound has an MIC value of 16 micrograms/ml or less) |
| N=C(N)NCCCNCc1ccc(-n2cc3cc(-c4cc(Br)c(CC(O)CCN)c(OC(F)(F)F)c4)[nH]c3nc2=O)cc1 (stereo not drawn) [Compound 43] | + (a “+” indicates that the compound has an MIC value of 16 micrograms/ml or less) |  |
| Cc1c(Cl)cc(CCCCN)cc1-c1cc2cn(-c3ccc(CNCCCNC(=N)N)cc3)c(=O)nc2[nH]1 [Compound 108] | + (a “+” indicates that the compound has an MIC value of 16 micrograms/ml or less) |  |
| N=C(N)NCCCNCc1ccc(-n2cc3cc(-c4cc(CCC5(CN)CCC5)cc(Cl)c4F)[nH]c3nc2=O)cc1 [Compound 253] | + (a “+” indicates that the compound has an MIC value of 16 micrograms/ml or less) |  |
| N=C(N)NCCCNCc1ccc(-n2cc3cc(-c4cc(C(O)CCCN)cc(C(F)(F)F)c4)[nH]c3nc2=O)cc1 (stereo not drawn) [Compound 29] | + (a “+” indicates that the compound has an MIC value of 16 micrograms/ml or less) |  |
| N=C(N)NCCCNCc1ccc(-n2cc3cc(-c4cc(CCCCN)cc(F)c4Cl)[nH]c3nc2=O)cc1 [Compound 37] | + (a “+” indicates that the compound has an MIC value of 16 micrograms/ml or less) |  |
| CNC(C)CCCc1cc(-c2cc3cn(-c4ccc(CNCCCNC(=N)N)cc4)c(=O)nc3[nH]2)cc(C(F)(F)F)c1 (stereo not drawn) [Compound 287] | + (a “+” indicates that the compound has an MIC value of 16 micrograms/ml or less) |  |
| COC(=O)CC(NCCCNC(=N)N)c1ccc(-n2cc3cc(-c4cc(CCCC(C)N)cc(SC(F)(F)F)c4)[nH]c3nc2=O)cc1 (stereo not drawn) [Compound 491] | + (a “+” indicates that the compound has an MIC value of 16 micrograms/ml or less) |  |
| CCC[C@H](NCCCNC(=N)N)c1ccc(-n2cc3cc(-c4cc(CCC[C@H](C)N)cc(C(F)(F)F)c4)[nH]c3nc2=O)cc1 [Compound 427] |  | + (a “+” indicates that the compound has an MIC value of 16 micrograms/ml or less) |
| CCc1cc(CCC[C@H](C)N)nc(-c2cc3cn(-c4ccc(CNCCCNC(=N)N)cc4)c(=O)nc3[nH]2)c1 [Compound 387] |  | + (a “+” indicates that the compound has an MIC value of 16 micrograms/ml or less) |
| CC(CCN)Cc1cc(SC(F)(F)F)cc(-c2cc3cn(-c4ccc([C@H](C)NCCCNC(=N)N)cc4)c(=O)nc3[nH]2)c1 (stereo partly drawn) [Compound 247] | + (a “+” indicates that the compound has an MIC value of 16 micrograms/ml or less) |  |
| C[C@H](N)CCCc1cc2c(c(-c3cc4cn(-c5ccc([C@H](C)NCCCNC(=N)N)cc5)c(=O)nc4[nH]3)c1)CCC2=O [Compound 461] |  | + (a “+” indicates that the compound has an MIC value of 16 micrograms/ml or less) |
| CC(N)CCCc1cc(OC(F)(F)F)c(F)c(-c2cc3cn(-c4ccc(CNCCCNC(=N)N)cc4)c(=O)nc3[nH]2)c1 (stereo not drawn) [Compound 286] | + (a “+” indicates that the compound has an MIC value of 16 micrograms/ml or less) |  |
| CC(N)CCCc1cc(OC(F)F)c(F)c(-c2cc3cn(-c4ccc(C(C)NCCCNC(=N)N)cc4)c(=O)nc3[nH]2)c1 (stereo not drawn) [Compound 299] | + (a “+” indicates that the compound has an MIC value of 16 micrograms/ml or less) |  |

| Compound | E. coli ATCC25922 MIC [1] | E. coli ATCC25922 MIC [2] |
| --- | --- | --- |
| N=C(N)NCCCNCc1ccc(-n2cc3cc(-c4cc(Cl)c(F)c(CCCCN)c4)[nH]c3nc2=O)cc1 [Compound 267] | + (a “+” indicates that the compound has an MIC value of 16 micrograms/ml or less) |  |
| CC(N)CCCc1cc(-c2cc3cn(-c4ccc(CNCCCNC(=N)N)cc4)c(=O)nc3[nH]2)cc(C2CCCC2)c1 (stereo not drawn) [Compound 483] | + (a “+” indicates that the compound has an MIC value of 16 micrograms/ml or less) |  |
| C[C@H](NCCCNC(=N)N)c1ccc(-n2cc3cc(-c4cc(CCC5COCC5N)cc(OC(F)(F)F)c4)[nH]c3nc2=O)cc1 (stereo partly drawn) [Compound 477] | + (a “+” indicates that the compound has an MIC value of 16 micrograms/ml or less) |  |
| CCc1cc(CCCCNC(=N)N)cc(-c2cc3cn(-c4ccc(CNCCCNC(=N)N)cc4)c(=O)nc3[nH]2)c1Cl [Compound 285] | + (a “+” indicates that the compound has an MIC value of 16 micrograms/ml or less) |  |
| CC(C)c1cc(CCC2(CN)CCC2)cc(-c2cc3cn(-c4ccc(CNCCCNC(=N)N)cc4)c(=O)nc3[nH]2)c1 [Compound 103] | + (a “+” indicates that the compound has an MIC value of 16 micrograms/ml or less) |  |
| CC(CCCc1cc(Cl)c(F)c(-c2cc3cn(-c4ccc(CNCCCNC(=N)N)cc4)c(=O)nc3[nH]2)c1)N(C)C (stereo not drawn) [Compound 298] | + (a “+” indicates that the compound has an MIC value of 16 micrograms/ml or less) |  |
| CC(N)CCCc1cc(-c2cc3cn(-c4ccc(C(C)NCCCNC(=N)N)cc4)c(=O)nc3[nH]2)cc(C(O)C(F)(F)F)c1 (stereo not drawn) [Compound 504] | + (a “+” indicates that the compound has an MIC value of 16 micrograms/ml or less) |  |
| C=CC(NCCCNC(=N)N)c1ccc(-n2cc3cc(-c4cc(CCCC(C)N)cc(C(F)(F)F)c4)[nH]c3nc2=O)cc1 (stereo not drawn) [Compound 482] | + (a “+” indicates that the compound has an MIC value of 16 micrograms/ml or less) |  |
| N=C(N)NCCCNCc1ccc(-n2cc3cc(-c4cc(CCC5(CN)CCC5)cc(OC(F)(F)F)c4)[nH]c3nc2=O)cc1 [Compound 96] | + (a “+” indicates that the compound has an MIC value of 16 micrograms/ml or less) |  |
| CCc1cc(CCCCN)cc(-c2cc3cn(-c4ccc(CNCCCNC(=N)N)cc4)c(=O)nc3[nH]2)c1 [Compound 123] | + (a “+” indicates that the compound has an MIC value of 16 micrograms/ml or less) |  |
| C[C@H](NCCCNC(=N)N)c1ccc(-n2cc3cc(-c4cc(CCCC(C)(C)N)cc(C(F)(F)F)c4)[nH]c3nc2=O)cc1 [Compound 318] | + (a “+” indicates that the compound has an MIC value of 16 micrograms/ml or less) |  |
| CC(NCCCNC(=N)N)c1ccc(-n2cc3cc(-c4cc(CC5CC(CN)C5)cc(SC(F)(F)F)c4)[nH]c3nc2=O)cc1 (mixture of isomers) [Compound 401] |  | + (a “+” indicates that the compound has an MIC value of 16 micrograms/ml or less) |
| N=C(N)NCCCNCc1ccc(-n2cc3cc(-c4cc(CCC(O)CN)cc(Cl)c4F)[nH]c3nc2=O)cc1 (stereo not drawn) [Compound 254] | + (a “+” indicates that the compound has an MIC value of 16 micrograms/ml or less) |  |
| CN=C(N)NCCCNC(C)c1ccc(-n2cc3cc(-c4cc(CCCC(C)N)cc(Cl)c4F)[nH]c3nc2=O)cc1 (stereo not drawn) [Compound 348] |  | + (a “+” indicates that the compound has an MIC value of 16 micrograms/ml or less) |
| CC(N)CCCc1cc(Cl)c(F)c(-c2cc3cn(-c4ccc(CN(C)CCCNC(=N)N)cc4)c(=O)nc3[nH]2)c1 (stereo not drawn) [Compound 379] |  | + (a “+” indicates that the compound has an MIC value of 16 micrograms/ml or less) |
| C[C@H](N)CCCc1cc(OC(F)(F)F)cc(-c2cc3cn(-c4ccc([C@@H](C)N)cc4)c(=O)nc3[nH]2)c1 [Compound 405] |  | − (a “−” indicates that the compound has an MIC value greater than 16 micrograms/ml) |
| N=C(N)NCC(F)(F)CNCc1ccc(-n2cc3cc(-c4cc(CCCCN)cc(OC(F)(F)F)c4)[nH]c3nc2=O)cc1 [Compound 30] | + (a “+” indicates that the compound has an MIC value of 16 micrograms/ml or less) |  |
| CC(NCCCNC(=N)N)c1ccc(-n2cc3cc(-c4cc(CCCC(N)CO)cc(Cl)c4F)[nH]c3nc2=O)cc1 (stereo not drawn) [Compound 391] |  | + (a “+” indicates that the compound has an MIC value of 16 micrograms/ml or less) |
| N=C(N)NCCCNCc1ccc(-n2cc3cc(-c4cc(CCC5(CN)CC5)ccc4F)[nH]c3nc2=O)cc1 [Compound 136] | + (a “+” indicates that the compound has an MIC value of 16 micrograms/ml or less) |  |
| C=C(CCCN)c1cc(OC(F)(F)F)cc(-c2cc3cn(-c4ccc(CNCCCNC(=N)N)cc4)c(=O)nc3[nH]2)c1 [Compound 95] | + (a “+” indicates that the compound has an MIC value of 16 micrograms/ml or less) |  |
| N=C(N)NCCCNCc1ccc(-n2cc3cc(-c4cc(CCCO)cc(OC(F)(F)F)c4)[nH]c3nc2=O)cc1 [Compound 60] | − (a “−” indicates that the compound has an MIC value greater than 16 micrograms/ml) |  |
